Experimental findings from patent publication US20090054392A1, “NAPHTHYLPYRIMIDINE, NAPHTHYLPYRAZINE AND NAPHTHYLPYRIDAZINE ANALOGS AND THEIR USE AS AGONISTS OF THE WNT-BETA-CATENIN CELLULAR MESSAGING SYSTEM” (Wyeth, priority 2007, published 2009) are described below.

The data set concerns Dkk1-LRP5-TCF-Luciferase. The experiment in a line: Functional Dkk1-LRP5-TCF-Luciferase Assay in U2OS Cells. As to conditions: for fold induction at 2 µM / fold induction at 20 µM / EC50: Homo sapiens, U2OS; for fold induction at 2 µM: read-out: B = TCF ACTIVITY/DMSO CONTROL Fold induction @ 2.0 uM, 2.0 uM compound; for fold induction at 20 µM: read-out: C = TCF ACTIVITY/DMSO CONTROL Fold induction @ 20.0 uM, 20.0 uM compound; for A = MAX FOLD Induction/DMSO CONTROL: maximum fold induction over DMSO control.

Consider `c1ccc2cc(-c3ccnc(N4CCC4)n3)ccc2c1` [2-azetidin-1-yl-4-(2-naphthyl)pyrimidine], for which the fold induction at 2 µM was 1.37 and the fold induction at 20 µM was 1.58.

With `CC(C)CNCC1CCN(c2nccc(-c3ccc4ccccc4c3)n2)CC1` [2-methyl-N-({1-[4-(2-naphthyl)pyrimidin-2-yl]piperidin-4-yl}methyl)propan-1-amine], the fold induction at 2 µM stood at 1.4, the fold induction at 20 µM was determined as 0.14 and the “A = MAX FOLD Induction/DMSO CONTROL” value is listed as 1.480 fold.

`CC(C)(C)NCC1CCN(c2nccc(-c3ccc4ccccc4c3)n2)CC1` [2-methyl-N-({1-[4-(2-naphthyl)pyrimidin-2-yl]piperidin-4-yl}methyl)propan-2-amine]: a half-maximal response (EC50) required 10.6 µM, the fold induction at 2 µM came to 1.49, the fold induction at 20 µM was found to be 5.76 and the “A = MAX FOLD Induction/DMSO CONTROL” value turned out to be 3.890 fold.

For the compound `CC(C)(C)NCC1CCN(c2nccc(-c3ccc4ccccc4c3)n2)C1` (centres unmarked) [2-methyl-N-({1-[4-(2-naphthyl)pyrimidin-2-yl]pyrrolidin-3-yl}methyl)propan-2-amine], a half-maximal effect (EC50) was put at 1.37 µM, the fold induction at 2 µM worked out at 1.99, the fold induction at 20 µM is 0.018 and the “A = MAX FOLD Induction/DMSO CONTROL” value came to 3.106 fold.

Take `CC(C)(C)NC[C@H]1CCN(c2nccc(-c3ccc4ccccc4c3)n2)C1` [2-methyl-N-({(3R)-1-[4-(2-naphthyl)pyrimidin-2-yl]pyrrolidin-3-yl}methyl)propan-2-amine]: the fold induction at 2 µM turned out to be 2.24, the fold induction at 20 µM came out at 0.01 and the “A = MAX FOLD Induction/DMSO CONTROL” value came to 2.300 fold.

As for `CC(C)(C)NC[C@@H]1CCN(c2nccc(-c3ccc4ccccc4c3)n2)C1` [2-methyl-N-({(3S)-1-[4-(2-naphthyl)pyrimidin-2-yl]pyrrolidin-3-yl}methyl)propan-2-amine], the fold induction at 2 µM is 2.44, the fold induction at 20 µM is 0.06 and the “A = MAX FOLD Induction/DMSO CONTROL” value amounted to 4.610 fold.

In the case of `NCCC1CCN(c2nccc(-c3ccc4ccccc4c3)n2)CC1` [2-{1-[4-(2-naphthyl)pyrimidin-2-yl]piperidin-4-yl}ethanamine], the fold induction at 2 µM stood at 2.15, the fold induction at 20 µM came to 0.005 and the “A = MAX FOLD Induction/DMSO CONTROL” value is given as 1.420 fold.

Consider `OCCC1CCN(c2nccc(-c3ccc4ccccc4c3)n2)CC1` [2-{1-[4-(2-naphthyl)pyrimidin-2-yl]piperidin-4-yl}ethanol], for which the fold induction at 2 µM came out at 1.54, the fold induction at 20 µM stood at 1.64 and the “A = MAX FOLD Induction/DMSO CONTROL” value stood at 1.840 fold.

For the compound `CS(=O)(=O)OCCC1CCN(c2nccc(-c3ccc4ccccc4c3)n2)CC1` [2-{1-[4-(2-naphthyl)pyrimidin-2-yl]piperidin-4-yl}ethyl methanesulfonate], the fold induction at 2 µM was determined as 1.02 and the fold induction at 20 µM was determined as 1.18.

As to `NCCC1CCN(c2nccc(-c3ccc4ccccc4c3)n2)C1` (centres unmarked) [2-{1-[4-(2-naphthyl)pyrimidin-2-yl]pyrrolidin-3-yl}ethanamine], a half-maximal response (EC50) required 0.7 µM, the fold induction at 2 µM is 4.23 and the “A = MAX FOLD Induction/DMSO CONTROL” value was 5.940 fold.

Consider `CN1CCN(CC2CCN(c3nccc(-c4ccc5ccccc5c4)n3)C2)CC1` (centres unmarked) [2-{3-[(4-methylpiperazin-1-yl)methyl]pyrrolidin-1-yl}-4-(2-naphthyl)pyrimidine], for which the fold induction at 2 µM was 2.7 and the “A = MAX FOLD Induction/DMSO CONTROL” value is reported as 1.340 fold.

Take `CN1CCN(CC2CCN(c3nccc(-c4ccc5ccccc5c4)n3)CC2)CC1` [2-{4-[(4-methylpiperazin-1-yl)methyl]piperidin-1-yl}-4-(2-naphthyl)pyrimidine]: the response was half-maximal at 1.19 µM (EC50), the fold induction at 2 µM is 5.46 and the “A = MAX FOLD Induction/DMSO CONTROL” value is reported as 5.430 fold.

The term EC50 denotes the concentration that produces a half-maximal response. Low readings indicate a more potent agent, high ones a less potent agent.
